Assays:
MM.1S cells [1] = test: MTT viability of MM.1S cells with or without rhIL-6 or rhIGF-I; type: cell-based, human; conditions: human, 24 h
From the text: Adhesion of MM cells to BMSCs induces IL-6 and IGF-I secretion from BMSCs, which not only regulates the growth of MM cells, but also protects against chemotherapy. See Hardin, J., MacLeod, S., Grigorieva, I., Chang, R., Barlogie, B., Xiao, H. & Epstein, J. (1994) Blood 84, 3063-70 and Chauhan, D., Kharbanda, S., Ogata, A., Urashima, M., Teoh, G., Robertson, M., Kufe, D. W. & Anderson, K. C. […] Thus, whether rhIL-6 or rhIGF-I inhibits apoptosis in MM cells induced by the compound of Formula (II) (X=Cl) was evaluated. […] At 24 h cells were harvested and viability analyzed by MTT assays. […] Median viability was 51±2.1% after treatment with Dex and 92±5.5% for Dex+rhIL-6 (P=0.05, as determined by one-sided Wilcoxon rank-sum test). Results are mean±SD of three independent experiments. […] In contrast and as in other studies, both IL-6 and IGF-I block Dex-induced decreased MM.1S cell viability. See Chauhan, D., Hideshima, T. & Anderson, K. C. (2003) Int J Hematol 78, 114-20 and Mitsiades, C. S., Mitsiades, N., Poulaki, V., Schlossman, R., Akiyama, M., Chauhan, D., Hideshima, T., Treon, S. P., Munshi, N. C., Richardson, P. G. & Anderson, K. C.

[2] = molecular target: proteasome β-5, β-1, β-2 subunits in MM.1S cells (Homo sapiens, UniProt P28072+P28074+Q99436); type: cell-based; conditions: even higher doses; data not shown
Description: In vivo determination of proteasome activity was conducted using a competition experiment with Dansyl-Ahx3L3VS, which covalently modifies all active proteasome subunits. This inhibitor contains a dansyl sulfonamide hexanoyl hapten that can be visualized by immunoblotting using antibodies against the dansyl moiety. […] Cells were lysed by incubating them for 30 mins in NP-40 lysis buffer (50 mM Tris-HCl pH 8.0, 150 mM NaCl, 1% NP-40), followed by 5 min. centrifugation to remove membrane fractions, nuclei, and cell debris. […] Blots were developed by enhanced chemiluminescence (Western Lightning, Perkin-Elmer).

[3] = test system: Lymphocytes from five healthy donors; test: MTT cytotoxicity on normal lymphocytes; conditions: human, 72 h
From the text: Bortezomib therapy is associated with toxicity in patients. […] Results are the mean±SD of three independent experiments.

[4] = test system: Chymotrypsin-like proteasome activity; type: cell-based, human; conditions: data not shown
From the text: (§1) Whether the compound of formula (II) or Bortezomib alters proteasome activity in normal lymphocytes and skin fibroblasts was also examined.

[5] = test system: Bcl2-transfected MM.1S cells; test: MTT viability of Bcl2-transfected MM.1S cells
Description: Bcl2 confers resistance to conventional therapies in cancer cells, including MM. […] Bcl2 can modestly attenuate Bortezomib-induced apoptosis. Thus, whether ectopic expression of Bcl2 in MM.1S cells affects responsiveness to the compound of formula (II) (X=Cl) was evaluated. MM.1S cells were stably transfected with Bcl2 construct and analyzed for alterations in cell viability using an MTT assay. […] Results are mean±SD of three independent experiments.
During apoptosis Bax neutralizes the antiapoptotic function of Bcl-2, thereby facilitating the cyto-c release and caspase-9 activation. Bcl-2 also confers drug resistance in cancer cells, including MM, and provides partial protection against Bortezomib-induced killing. Therefore, whether ectopic expression of Bcl-2 in MM.1S cells affects the ability of the compound of formula (II) or Bortezomib to trigger cytotoxicity and postmitochondrial apoptotic signaling in MM cells was evaluated.

MM.1S cells [6] = test: cells
From the text: MM.1S cells were also transiently transfected using Cell line Nucleofecto kit V, according to the manufacturer's instructions (Amaxa Biosystems, Germany), with vector alone, DN-caspase-8, DN-caspase-9, or DN-FADD and cotransfected with vector containing green fluorescence protein (GFP) alone.
It was next determined whether inhibition of an upstream signaling pathway that leads to caspase-8 activation affects the response to the compound of formula (II) (X=Cl) or Bortezomib. The Fas-associated death domain (FADD) protein is an important part of the deathinducing signaling complexes (DISCs) that assemble upon engagement of TNF receptor family members, such as Fas, resulting in proteolytic processing and autoactivation of pro-caspase-8. Since both the compound of formula (II) (X=Cl) and Bortezomib trigger caspase-8 activation, the role of FADD during this event in MM cells was evaluated using DN-FADD.

[7] = test system: normal CCD-27sk fibroblasts; test: cells; type: cell-based, human; conditions: Homo sapiens
From the text: as §1

[8] = test system: Mouse embryonic fibroblast (MEFs); test: MTT viability of MEFs with wild-type or knock-out Bax; type: cell-based; conditions: 48 h; FIG. 12F
From the text: Results are mean±SD of three independent experiments (P<0.05).

proteasome = proteasome (Homo sapiens, UniProt P28074); conditions: Goldberg & Rock 2002; Adams 2004; cited from earlier work
Bax = test: Immunoblot of Bax in mitochondrial protein extracts; type: cell-based, human; conditions: MM.1S cells; FIG. 12E
Description: Immunoblot analysis was performed using antibodies to cytochrome-c, Smac, Caspase-8, -9, or -3 (Cell Signaling, Beverly, Mass.), tubulin (Sigma, St. Louis, Mo.), PARP, Hsp60, or Bax (BD Bioscience Pharmingen, San Diego, Calif.). Blots were developed by enhanced chemiluminesence (ECL; Amersham, Arlington Heights, Ill.).
Previous studies have established that Bax induces mitochondrial apoptotic pathway. See Wei, M. C., Zong, W. X., Cheng, E. H., Lindsten, T., Panoutsakopoulou, V., Ross, A. J., Roth, K. A., MacGregor, G. R., Thompson, C. B. & Korsmeyer, S. J. (2001) Science 292, 727-30 and Lei, K., Nimnual, A., Zong, W. X., Kennedy, N. J., Flavell, R. A., Thompson, C. […] Thus, whether MM cell apoptosis induced by the compound of formula (II) (X=Cl) correlates with alterations in Bax was evaluated. […] Blots are representatives of three independent experiments.

RPMI 8226 MM cells = type: in vivo, beige-nude-xid (BNX) mice; conditions: i.v. twice weekly (compound 0.15 mg/kg; Bortezomib 1.0 mg/kg)

proteasome, sequence (P28074 60-263): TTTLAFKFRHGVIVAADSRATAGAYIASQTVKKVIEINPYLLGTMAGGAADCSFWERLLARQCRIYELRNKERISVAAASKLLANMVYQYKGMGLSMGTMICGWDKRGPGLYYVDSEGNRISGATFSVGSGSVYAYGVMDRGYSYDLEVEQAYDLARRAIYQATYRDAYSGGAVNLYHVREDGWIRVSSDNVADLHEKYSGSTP

| Compound | median cell viability (MM.1S cells [1]) | inhibition of the β-2 subunits [2] | decrease in viability of normal lymphocytes [3] | inhibition of Chymotrypsin-like proteasome activity ([4]; 20 nM) | proteasome activity in CCD-27sk fibroblasts ([4]; treatment at the IC50) | increased survival of Bcl-2 transfectants ([5]; Bcl-2- versus vector-transfected, FIG. 14A) | decrease of caspase-9 cleavage in Bcl-2-transfected cells by densitometry ([5]; versus vector-transfected cells, FIG. 14B) | increase in survival of DN-FADD-transfected compared to vector-transfected cells (MM.1S cells [6]; FIG. 12D) | IC50 (MM.1S cells [6]; Homo sapiens, MM1.S) | effect of caspase-8 blockade on triggered cell death (MM.1S cells [6]; IETD-fmk, FIG. 12A) | effect of caspase-9 inhibition on decreased viability (MM.1S cells [6]; LEHD-FMK, FIG. 12A) | survival of DN-caspase-8-transfected compared to DN-caspase-9-transfected cells (MM.1S cells [6]; treated at IC50, FIG. 12B) | effect of caspase-3 inhibition on induced apoptosis (MM.1S cells [6]; z-VAD-fmk, FIG. 12A) | IC50 [7] | cell viability in Bax (WT) and Bax (knock-out) MEFs [8] | proteasome activities inhibited (proteasome) | Bax levels in mitochondria (Bax) | tumor progression (RPMI 8226 MM cells; p<0.01) | survival (RPMI 8226 MM cells; p=0.0137) |
| --- | --- | --- | --- | --- | --- | --- | --- | --- | --- | --- | --- | --- | --- | --- | --- | --- | --- | --- | --- |
| C[C@@H]1C[C@H]2[C@@H]3CCC4=CC(=O)C=C[C@]4(C)[C@@]3(F)[C@@H](O)C[C@]2(C)[C@@]1(O)C(=O)CO [Dex, reference compound] | 51±2.1% | – | – | – | – | – | – | – | – | – | – | – | – | – | – | – | – | – | – |
| CC(C)C[C@H](NC(=O)[C@H](Cc1ccccc1)NC(=O)c1cnccn1)B(O)O [Bortezomib, reference compound] | – | does not inhibit the β-2 subunits | 50% | 59±11% | inhibited proteasome activity | 21% | 3 fold | 16% | 5 nM | equally blocked | equally blocked | increased the survival to a similar extent | markedly abrogates | 15 nM | deletion of Bax confers significant resistance | inhibit only chymotrypsin-like proteasome activity | significant accumulation of Bax in mitochondria | significantly reduced the tumor progression | prolonged survival |

From patent publication US10610517B2, “Compositions and methods for treating neoplastic diseases” (Celgene International II Sàrl, priority 2004, dated 2020)
